The text below walks through data of patent US20120184016A1, “NOVEL PROTEIN AND GENE THAT CODES THEREFOR” (priority 2009, published 2012).

One test deals with recombinant β-galactoside-α2,6-sialyltransferase N1C0. The test can be described thus: Sugar acceptor substrate specificity (sialic acid transfer to monosaccharides/disaccharides). In kind it is biochemical, Photobacterium leiognathi strain JT-SHIZ-119. More on the design: Relative activity: concentration or dose not given beside the values. The settings on record: purified enzyme; among 11 monosaccharides and disaccharides. How it is done: Sialyltransferase activity was measured by a method described in J. Biochem., 120, 104-110 (1996) (which is hereby incorporated by reference in its entirety). Specifically, the enzyme reaction was performed using a reaction solution (30 μL) containing CMP-NeuAc (70 nmol, containing about 20000 cpm CMP-NeuAc in which NeuAc was labeled with ^14C; NeuAc represents N-acetylneuraminic acid) as a sugar donor substrate, lactose (1.25 μmol) as a sugar acceptor substrate, NaCl added to give a concentration of 0.5 M, and the enzyme prepared as described above. The enzyme reaction was carried out at 25° C. for about 10 to 180 minutes. After completion of the reaction, 1.97 mL of 5 mM phosphate buffer (pH 6.8) was added to the reaction solution, which was then applied to a Dowex 1×8 (PO4^3− form, 0.2×2 cm, manufactured by Bio-Rad Laboratories, Inc.) column. The radioactivity contained in the reaction product contained in the eluate (0 to 2 mL) from this column, that is, sialyllactose, was measured to calculate the enzyme activity. One enzyme unit (1 U) is defined as the amount of enzyme required to transfer one micromole of sialic acid per minute.
Sialic acid transfer reaction was performed using the purified enzyme, JT-SHIZ-119-derived recombinant β-galactoside-α2,6-sialyltransferase SHIZ119-N1C0, prepared in Example 3 and using various monosaccharides/disaccharides as sugar acceptor substrates. The reaction was performed by the method described in J. Biochem., 120, 104-110 (1996).
The monosaccharides used as sugar acceptor substrates were the following eight types: methyl-α-D-galactopyranoside (Gal-α-OMe), methyl-β-D-galactopyranoside (Gal-β-OMe), methyl-α-D-glucopyranoside (Glc-α-OMe), methyl-β-D-glucopyranoside (Glc-β-OMe), methyl-α-D-mannopyranoside (Man-α-OMe), methyl-β-D-mannopyranoside (Man-(3-OMe), N-acetylgalactosamine (GalNAc), and N-acetylglucosamine (GlcNAc). The disaccharides used were the following three types: lactose (Gal-β1,4-Glc), N-acetyllactosamine (Gal-β1,4-GlcNAc), and Gal-β1,3-GalNAc.
Note that the relative activity for each acceptor substrate is based on the sialyltransferase activity represented by 100 for lactose.
In the case of `CC(=O)N[C@H]1C(O)O[C@H](CO)[C@H](O)[C@@H]1O[C@@H]1O[C@H](CO)[C@H](O)[C@H](O)[C@H]1O` (stereo partly drawn) [Gal-β1,3-GalNAc], the “transfer of sialic acid to the sugar acceptor substrate (in words)” value (from here on “transfer of sialic acid”) is “efficiently transferred”.

Consider `OC[C@H]1O[C@@H](O[C@H]2[C@H](O)[C@@H](O)C(O)O[C@@H]2CO)[C@H](O)[C@@H](O)[C@H]1O` (some centres unmarked) [Lactose, lactose], for which the “transfer of sialic acid” value is given as “efficiently transferred”.

Regarding `CO[C@@H]1O[C@H](CO)[C@H](O)[C@H](O)[C@H]1O` [Methyl-β-D-galactopyranoside, methyl-β-D-galactopyranoside], the “transfer of sialic acid” value is recorded as “efficiently transferred”.

Regarding `CC(=O)N[C@H]1C(O)O[C@H](CO)[C@H](O)[C@@H]1O` (some centres unmarked) [N-Acetylgalactosamine, N-acetylgalactosamine], the “transfer of sialic acid” value is listed as “efficiently transferred”.

Consider `CC(=O)N[C@H]1C(O)O[C@H](CO)[C@@H](O[C@@H]2O[C@H](CO)[C@H](O)[C@H](O)[C@H]2O)[C@@H]1O` (some centres unmarked) [N-Acetyllactosamine, N-acetyllactosamine], for which the “transfer of sialic acid” value is given as “efficiently transferred”.

The test is the same for the next values; noted with them: purified enzyme; substance used as sugar acceptor substrate.
Regarding `CC(=O)N[C@H]1C(O)O[C@H](CO)[C@H](O)[C@@H]1O[C@@H]1O[C@H](CO)[C@H](O)[C@H](O)[C@H]1O` (stereo partly drawn) [Gal-β1,3-GalNAc], the “Transferred NeuAc” value is 1.68 nmol/min.

For `OC[C@H]1O[C@@H](O[C@H]2[C@H](O)[C@@H](O)C(O)O[C@@H]2CO)[C@H](O)[C@@H](O)[C@H]1O` (some centres unmarked) [Lactose, lactose], the “Transferred NeuAc” value turned out to be 2.88 nmol/min.

`CO[C@H]1O[C@H](CO)[C@H](O)[C@H](O)[C@H]1O` [Methyl-α-D-galactopyranoside, methyl-α-D-galactopyranoside]: the “Transferred NeuAc” value is reported as 0.04 nmol/min.

For the compound `CO[C@H]1O[C@H](CO)[C@@H](O)[C@H](O)[C@H]1O` [Methyl-α-D-glucopyranoside, methyl-α-D-glucopyranoside], the “Transferred NeuAc” value is given as less than 0.01 nmol/min.

Take `CO[C@H]1O[C@H](CO)[C@@H](O)[C@H](O)[C@@H]1O` [Methyl-α-D-mannopyranoside, methyl-α-D-mannopyranoside]: the “Transferred NeuAc” value is recorded as less than 0.01 nmol/min.

With `CO[C@@H]1O[C@H](CO)[C@H](O)[C@H](O)[C@H]1O` [Methyl-β-D-galactopyranoside, methyl-β-D-galactopyranoside], the “Transferred NeuAc” value was 1.1 nmol/min.

For the compound `CO[C@@H]1O[C@H](CO)[C@@H](O)[C@H](O)[C@H]1O` [Methyl-β-D-glucopyranoside, methyl-β-D-glucopyranoside], the “Transferred NeuAc” value was less than 0.01 nmol/min.

Regarding `CO[C@@H]1O[C@H](CO)[C@@H](O)[C@H](O)[C@@H]1O` [Methyl-β-D-mannopyranoside, methyl-β-D-mannopyranoside], the “Transferred NeuAc” value amounted to 0.04 nmol/min.

With `CC(=O)N[C@H]1C(O)O[C@H](CO)[C@H](O)[C@@H]1O` (some centres unmarked) [N-Acetylgalactosamine, N-acetylgalactosamine], the “Transferred NeuAc” value was 0.29 nmol/min.

With `CC(=O)N[C@H]1C(O)O[C@H](CO)[C@@H](O)[C@@H]1O` (some centres unmarked) [N-Acetylglucosamine, N-acetylglucosamine], the “Transferred NeuAc” value is recorded as less than 0.01 nmol/min.

`CC(=O)N[C@H]1C(O)O[C@H](CO)[C@@H](O[C@@H]2O[C@H](CO)[C@H](O)[C@H](O)[C@H]2O)[C@@H]1O` (some centres unmarked) [N-Acetyllactosamine, N-acetyllactosamine]: the “Transferred NeuAc” value was found to be 2.96 nmol/min.

Staying with this test, now noted: sialyltransferase activity represented by 100 for lactose.
Regarding `CC(=O)N[C@H]1C(O)O[C@H](CO)[C@H](O)[C@@H]1O[C@@H]1O[C@H](CO)[C@H](O)[C@H](O)[C@H]1O` (stereo partly drawn) [Gal-β1,3-GalNAc], the Relative activity stood at 58%.

`OC[C@H]1O[C@@H](O[C@H]2[C@H](O)[C@@H](O)C(O)O[C@@H]2CO)[C@H](O)[C@@H](O)[C@H]1O` (some centres unmarked) [Lactose, lactose]: the Relative activity is given as 100%.

Take `CO[C@H]1O[C@H](CO)[C@H](O)[C@H](O)[C@H]1O` [Methyl-α-D-galactopyranoside, methyl-α-D-galactopyranoside]: the Relative activity stood at 1%.

For the compound `CO[C@@H]1O[C@H](CO)[C@H](O)[C@H](O)[C@H]1O` [Methyl-β-D-galactopyranoside, methyl-β-D-galactopyranoside], the Relative activity amounted to 38%.

Regarding `CO[C@@H]1O[C@H](CO)[C@@H](O)[C@H](O)[C@@H]1O` [Methyl-β-D-mannopyranoside, methyl-β-D-mannopyranoside], the Relative activity was found to be 1%.

Regarding `CC(=O)N[C@H]1C(O)O[C@H](CO)[C@H](O)[C@@H]1O` (some centres unmarked) [N-Acetylgalactosamine, N-acetylgalactosamine], the Relative activity was found to be 10%.

As for `CC(=O)N[C@H]1C(O)O[C@H](CO)[C@@H](O[C@@H]2O[C@H](CO)[C@H](O)[C@H](O)[C@H]2O)[C@@H]1O` (some centres unmarked) [N-Acetyllactosamine, N-acetyllactosamine], the Relative activity was 103%.

The next test concerns JT-SHIZ-119-derived recombinant β-galactoside-α2,6-sialyltransferase N1C0 (neuraminidase activity). Briefly: Substrate specificity of neuraminidase activity with PA-sugar chains, HPLC. In kind it is biochemical, Photobacterium leiognathi strain JT-SHIZ-119. The settings on record: 30° C. for 18 hours; FIGS. 3-5, 3-7, 3-8. How it is done: The substrate specificity of neuraminidase, that is, the linkage mode of sialic acid to a sugar chain that is cleaved by the neuraminidase can be determined by, but not limited to, a method using a pyridylaminated sugar chain. More specifically, the enzyme reaction by neuraminidase is performed using PA sugar chains in which sialic acid is linked by α2,3-linkage, α2,6-linkage, or α2,8-linkage (for example, pyridylaminated sugar chains such as PA-Sugar Chain 029, PA-Sugar Chain 023, and PA-Sugar Chain 034 available from Takara Bio Inc.). The reaction product is analyzed by high performance liquid chromatography, and the amount of sialic acid that was cleaved is calculated from the retention time and peak area of the reaction product.
To reveal the specificity of the neuraminidase activity of the JT-SHIZ-119-derived recombinant β-galactoside-α2,6-sialyltransferase N1C0, reactions using a PA-sugar chain shown in Table 4, to which sialic acid is linked via α2,3-, α2,6-, or α2,8-linkage (PA-Sugar Chain 029, PA-Sugar Chain 023, or PA-Sugar Chain 034, manufactured by Takara Bio Inc.) as a substrate were performed.
To a purified enzyme solution of the JT-SHIZ-119-derived recombinant β-galactoside-α2,6-sialyltransferase N1C0 (equivalent to 0.6 U as sialyltransferase activity), 1.5 μL of a 10 pmol/μL PA-sugar chain was added, followed by reaction at 30° C. for 18 hours. After completion of the reaction, the reaction solution was treated at 100° C. for 2 minutes to inactivate the enzyme, followed by HPLC to analyze the reaction product. In the case of using PA-Sugar Chain 023 as the substrate, the pyridylaminated sugar chain was eluted and analyzed under the same conditions as those in Example 1. In the case of using PA-Sugar Chain 029 or PA-Sugar Chain 034 as the substrate, the elution was performed using eluent A (100 mM acetate-triethylamine, pH 5.0) and eluent B (100 mM acetate-triethylamine containing 0.5% n-butanol, pH 5.0) with a linear gradient of 0 to 100% eluent B (0 to 35 min), 100% eluent B (35 to 50 min), and then a linear gradient of 100% to 30% eluent B (51 to 75 min). The analysis was performed under the conditions of Example 1. FIGS. 3-2 to 3-8 show the results.
`CC(=O)NC1C(O)CC(OC2C(O)C(CO)OC(OC(C(O)CO)C(O)C(O)CNc3ccccn3)C2O)(C(=O)O)OC1C(O)C(O)CO` (centres unmarked) [PA-Sugar Chain 029, Neu5Acα2-3Galβ1-4Glc-PA]: the “HPLC peak after reaction of the PA-sugar chain with the purified enzyme solution” value (from here on “HPLC peak after reaction”) is listed as “corresponds to PA-Sugar Chain 029”.

Take “GD1b-hexasaccharide [PA-Sugar Chain 034]”: the “HPLC peak after reaction” value is “corresponds to PA-Sugar Chain 034”.

As to “N-Acetyllactosamine type, disialylated biantennary [PA-Sugar Chain 023]”, the “HPLC peak after reaction” value is on record as “corresponds to PA-Sugar Chain 001”.
